Data on one substance can be found in ChEMBL document CHEMBL3627609, “A fragment of the Escherichia coli ClpB heat-shock protein is a micromolar melanocortin 1 receptor agonist” (Bioorg Med Chem Lett, 2015).

Assay [1] concerns the target Melanocortin receptor 3 (Mus musculus) (UniProt P33033). The assay can be described thus: Antagonist activity at mouse melanocortin 3 receptor expressed in HEK293 cells using NDP-MSH as agonist by Schild analysis. In kind it is cell-based.
Assay [2] shares this target. The assay can be described thus: Agonist activity at mouse melanocortin 3 receptor expressed in HEK293 cells at 100 uM by AlphaScreen cAMP assay. Type of assay: functional, cell-based. (In general: Bead proximity is the source of the signal in Alpha formats.)
The next assay deals with Melanocortin receptor 4 (Mus musculus, UniProt P56450). The assay can be described thus: Agonist activity at mouse melanocortin 4 receptor expressed in HEK293 cells by AlphaScreen cAMP assay. Type of assay: functional, cell-based.
Assay [3] deals with Melanocyte-stimulating hormone receptor (Mus musculus, UniProt Q01727). Briefly: Agonist activity at mouse melanocortin 1 receptor expressed in HEK293 cells by AlphaScreen cAMP assay. Type of assay: functional, cell-based.
Assay [4] addresses Melanocortin receptor 5 (Mus musculus) (UniProt P41149). The assay can be described thus: Agonist activity at mouse melanocortin 5 receptor expressed in HEK293 cells at 100 uM by AlphaScreen cAMP assay. In kind it is functional, cell-based.
Assay [5] has as its target Melanocortin receptor 4 (Mus musculus) (UniProt P56450). The assay can be described thus: Antagonist activity at mouse melanocortin 4 receptor expressed in HEK293 cells using NDP-MSH as agonist by Schild analysis. In kind it is cell-based.

Activity calls are given as the source filed them. The rule behind the calls is not given here.

Broadly, the EC50 is the concentration at which the effect is half-maximal. A high value points to a less potent agent.

Chain of Melanocortin receptor 3 (Mus musculus) (P33033 whole entry): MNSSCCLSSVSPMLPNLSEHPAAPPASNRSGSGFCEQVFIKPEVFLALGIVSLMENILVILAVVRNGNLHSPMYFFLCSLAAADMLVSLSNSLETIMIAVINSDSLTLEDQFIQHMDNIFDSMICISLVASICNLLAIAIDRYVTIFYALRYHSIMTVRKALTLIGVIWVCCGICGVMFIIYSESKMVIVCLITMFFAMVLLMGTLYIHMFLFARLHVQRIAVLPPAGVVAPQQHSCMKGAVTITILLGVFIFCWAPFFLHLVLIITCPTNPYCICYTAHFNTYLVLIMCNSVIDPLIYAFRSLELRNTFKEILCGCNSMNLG
Chain of Melanocortin receptor 4 (P56450 whole entry): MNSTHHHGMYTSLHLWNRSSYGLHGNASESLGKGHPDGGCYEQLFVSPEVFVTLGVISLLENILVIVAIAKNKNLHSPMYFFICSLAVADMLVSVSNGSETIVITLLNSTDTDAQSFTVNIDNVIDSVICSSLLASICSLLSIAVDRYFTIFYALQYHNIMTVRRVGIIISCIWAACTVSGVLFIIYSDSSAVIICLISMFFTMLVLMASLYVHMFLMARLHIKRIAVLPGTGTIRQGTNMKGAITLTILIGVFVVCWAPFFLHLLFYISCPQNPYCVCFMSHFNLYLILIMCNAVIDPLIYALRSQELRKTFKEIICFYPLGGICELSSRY
Chain of Melanocortin receptor 4 (Mus musculus) (P56450 whole entry): as above
Chain of Melanocortin receptor 5 (Mus musculus) (P41149 whole entry): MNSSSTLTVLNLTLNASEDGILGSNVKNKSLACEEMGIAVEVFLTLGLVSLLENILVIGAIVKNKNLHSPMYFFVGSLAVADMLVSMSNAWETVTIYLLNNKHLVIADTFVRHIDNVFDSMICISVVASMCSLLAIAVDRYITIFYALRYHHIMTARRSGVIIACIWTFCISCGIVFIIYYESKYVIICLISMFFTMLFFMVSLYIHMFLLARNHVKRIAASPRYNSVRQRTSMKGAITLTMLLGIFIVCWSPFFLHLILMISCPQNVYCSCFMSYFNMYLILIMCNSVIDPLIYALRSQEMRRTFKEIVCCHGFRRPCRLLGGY
Chain of Melanocyte-stimulating hormone receptor (Q01727 whole entry): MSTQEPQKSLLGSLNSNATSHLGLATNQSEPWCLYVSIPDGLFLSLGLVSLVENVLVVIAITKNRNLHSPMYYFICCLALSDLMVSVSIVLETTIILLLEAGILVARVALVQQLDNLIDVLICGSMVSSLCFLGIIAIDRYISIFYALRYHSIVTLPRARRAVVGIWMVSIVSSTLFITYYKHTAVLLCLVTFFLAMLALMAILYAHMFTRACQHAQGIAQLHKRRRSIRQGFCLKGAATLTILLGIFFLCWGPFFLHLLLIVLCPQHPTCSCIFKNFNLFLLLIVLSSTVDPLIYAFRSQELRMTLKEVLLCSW

For the substance Ac-EIAEVLARWTGIPV-NH2, the inhibition result in assay [1] and in assay [5] was “inactive” each time. The Activity in assay [2] came out at 30%; in assay [4] it was 50%. For the same substance, the values for the EC50 (at Melanocortin receptor 4; in assay [3]) were over 100 µM and 41 µM, respectively.
